The supplement of paper PMC10307832

Assays:
Assay in all cases: relative viability (nuclei count vs DMSO), 5 days (fraction); higher = more cells survive
[1] = compound: COC1=CC=C(C=C1)CN2C=CC3=C2C=C(C=C3)C(=O)NO + CS(=O)(=O)CCNCc1ccc(-c2ccc3ncnc(Nc4ccc(OCc5cccc(F)c5)c(Cl)c4)c3c2)o1 [Lapatinib] (partner 2 µM)
Procedure, shortened: (§1)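 Relative viability was taken as the ratio of nuclei in treated wells to nuclei in vehicle wells. Lung cancer cell lines in 1536-well plates received compounds by pin tool one day after seeding, either one drug alone or a fixed anchor-drug dose plus five library-drug doses (not always all listed) in √10 steps. Nuclei were counted on 4× images after 5 days of treatment, and values are medians of duplicate plates.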

[2] = compound: COC1=CC=C(C=C1)CN2C=CC3=C2C=C(C=C3)C(=O)NO + COc1cc2c(Oc3ccc(NC(=O)C4(C(=O)Nc5ccc(F)cc5)CC4)cc3F)ccnc2cc1OCCCN1CCOCC1 [Foretinib] (partner 0.25 µM)
Procedure, shortened: as §1

[3] = compound: C[C@]1(c2nc3c(C(N)=O)cccc3[nH]2)CCCN1 [Veliparib] + NC(=O)Nc1cc(-c2cccc(F)c2)sc1C(=O)N[C@H]1CCCNC1 [AZD7762] (partner 0.2 µM)
Procedure, shortened: as §1

[4] = compound: C[C@]1(c2nc3c(C(N)=O)cccc3[nH]2)CCCN1 [Veliparib] + COc1cccc2cc(-c3nc([C@H]4CC[C@H](C(=O)O)CC4)n4ncnc(N)c34)[nH]c12 [OSI-027] (partner 0.5 µM)
Procedure, shortened: as §1

Cell Line	relative viability ([1]; first compound 0.08 µM)	relative viability ([1]; first compound 0.253 µM)	relative viability ([1]; first compound 0.8 µM)	relative viability ([1]; first compound 2.53 µM)	relative viability ([1]; first compound 8 µM)	relative viability ([2]; first compound 0.08 µM)	relative viability ([2]; first compound 0.253 µM)	relative viability ([2]; first compound 0.8 µM)	relative viability ([2]; first compound 2.53 µM)	relative viability ([2]; first compound 8 µM)	relative viability ([3]; first compound 0.02 µM)	relative viability ([3]; first compound 0.06325 µM)	relative viability ([3]; first compound 0.2 µM)	relative viability ([3]; first compound 0.6325 µM)	relative viability ([3]; first compound 2 µM)	relative viability ([4]; first compound 0.02 µM)	relative viability ([4]; first compound 0.06325 µM)	relative viability ([4]; first compound 0.2 µM)	relative viability ([4]; first compound 0.6325 µM)	relative viability ([4]; first compound 2 µM)
HOP-62	0.225	1.1	1.08	0.997	0.973	0.74	1.14	1.08	1.01	1.1	0.567	0.65	0.621	0.463	0.598	0.756	0.734	0.798	0.792	0.761
LC-2-ad	0.259	0.948	0.972	0.931	0.92	0.904	0.918	0.899	0.906	0.816	0.606	0.822	0.865	0.876	0.801	–	0.758	0.781	0.792	0.87
LCLC-97TM1	–	0.872	1.26	0.911	0.806	0.444	0.992	0.96	0.942	0.923	0.164	0.264	0.191	0.274	0.31	0.51	0.5	0.505	0.433	0.587
LK-2	–	0.909	0.932	0.955	0.82	–	1.66	1.4	0.949	1.03	0.32	0.367	0.461	0.465	0.492	0.164	0.204	0.229	0.263	0.206
LOU-NH91	0.561	0.745	0.825	0.733	0.725	0.899	0.941	0.915	0.908	0.861	0.768	0.705	0.75	0.723	0.821	0.716	0.669	0.688	0.726	0.74
LU99A	–	0.92	0.961	0.957	0.891	–	0.904	0.841	0.865	0.836	0.403	0.385	0.322	0.283	0.317	0.297	0.303	0.27	0.266	0.323
LXF-289	0.301	0.921	0.878	0.926	0.883	–	0.994	1.01	1.02	1.03	1.06	1.06	1.12	1.09	1.14	0.836	0.781	0.799	0.711	0.759
NCI-H23	0.383	1.21	1.06	1.01	0.88	0.823	1.17	0.981	0.955	0.853	0.35	0.216	0.201	0.277	0.28	0.652	0.393	0.587	0.518	0.737
NCI-H322M	–	0.628	0.644	0.293	0.499	–	1.03	1.06	0.984	0.882	–	0.629	0.573	0.744	0.611	–	0.48	0.526	0.557	0.482
NCI-H358	–	0.472	0.437	0.394	0.397	–	0.684	0.801	0.575	0.57	–	0.487	0.671	0.552	0.676	0.496	0.715	0.796	0.611	0.698
NCI-H460	0.118	1.04	0.953	0.907	0.931	0.53	1.06	0.973	0.974	1.02	0.635	0.469	0.602	0.583	0.516	0.677	0.63	0.621	0.583	0.632
NCI-H596	0.976	1.01	1.25	1.11	0.999	0.841	0.983	0.846	0.895	0.523	1.34	1.22	1.17	1.13	0.952	0.805	0.696	0.779	0.783	0.68
NCI-H647	0.626	1.07	1.04	1.1	0.97	0.707	1.34	1.09	1.2	1.38	0.53	0.415	0.429	0.552	0.394	0.662	0.479	0.618	0.605	0.648
NCI-H650	0.601	0.837	0.927	0.732	0.759	1.04	1.01	1.04	1.02	0.936	1.07	0.798	1.14	0.96	0.944	0.436	0.415	0.543	0.48	0.55
NCI-H727	0.775	0.927	0.868	0.942	0.915	0.792	0.951	1.31	0.819	0.836	0.627	0.495	0.784	0.681	0.603	0.527	0.439	0.648	0.494	0.537
NCI-H838	–	1.01	0.98	1.03	0.873	–	1.07	1	0.995	0.982	0.998	0.914	0.963	0.94	0.937	0.419	0.328	0.409	0.296	0.372
NCI-H1355	0.247	1.1	0.959	0.978	0.934	–	0.959	0.928	1.02	0.962	0.733	0.685	0.726	0.684	0.739	–	0.323	0.448	0.357	0.355

Cell Line	relative viability ([1]; first compound 0.08 µM)	relative viability ([1]; first compound 0.253 µM)	relative viability ([1]; first compound 0.8 µM)	relative viability ([1]; first compound 2.53 µM)	relative viability ([1]; first compound 8 µM)	relative viability ([2]; first compound 0.08 µM)	relative viability ([2]; first compound 0.253 µM)	relative viability ([2]; first compound 0.8 µM)	relative viability ([2]; first compound 2.53 µM)	relative viability ([2]; first compound 8 µM)	relative viability ([3]; first compound 0.02 µM)	relative viability ([3]; first compound 0.06325 µM)	relative viability ([3]; first compound 0.2 µM)	relative viability ([3]; first compound 0.6325 µM)	relative viability ([3]; first compound 2 µM)	relative viability ([4]; first compound 0.02 µM)	relative viability ([4]; first compound 0.06325 µM)	relative viability ([4]; first compound 0.2 µM)	relative viability ([4]; first compound 0.6325 µM)	relative viability ([4]; first compound 2 µM)
NCI-H1395	0.674	0.851	0.937	0.93	0.778	0.916	0.949	0.99	1.04	0.99	0.454	0.359	0.411	0.405	0.405	0.494	0.576	0.548	0.579	0.523
NCI-H1437	0.23	0.84	0.877	0.886	0.8	1.05	1.21	1.22	1.34	1.27	0.996	1.07	1.17	1.13	1.09	0.694	0.959	0.878	0.759	0.844
NCI-H1651	0.425	0.886	0.857	0.767	0.746	0.646	0.89	0.709	0.723	0.694	0.455	0.424	0.419	0.46	0.412	0.699	0.626	0.619	0.659	0.697
NCI-H1666	0.428	0.778	0.821	0.649	0.716	0.755	1.06	0.985	0.963	1.06	0.872	0.823	0.799	0.918	0.881	0.938	0.791	0.763	0.806	0.848
NCI-H1734	–	1.14	1.07	1.04	0.916	–	0.919	0.852	0.897	0.863	–	0.529	0.529	0.536	0.642	0.44	0.575	0.57	0.585	0.67
NCI-H1755	0.715	1.07	1	1.01	1.02	0.892	1.01	0.915	0.941	0.946	0.479	0.543	0.5	0.443	0.444	0.767	0.713	0.683	0.586	0.645
NCI-H1793	0.343	0.751	0.688	0.705	0.598	–	0.732	0.63	0.656	0.63	0.532	0.518	0.592	0.56	0.581	0.317	0.265	0.31	0.286	0.262
NCI-H1915	0.301	0.977	1.01	1	0.958	1.07	1.1	1.15	1.07	1.09	0.661	0.643	0.517	0.556	0.519	0.587	0.616	0.545	0.567	0.574
NCI-H1944	–	0.834	0.86	0.817	0.701	–	0.874	0.853	0.887	0.912	0.521	0.592	0.504	0.511	0.529	0.439	0.363	0.394	0.349	0.384
NCI-H1975	0.691	0.845	0.832	0.875	0.78	0.931	1.14	0.934	0.968	0.926	0.765	0.639	0.737	0.736	0.61	0.715	0.674	0.676	0.677	0.68
NCI-H1993	0.639	0.857	0.843	0.864	0.741	0.552	0.818	0.836	0.892	0.777	–	0.875	0.934	0.664	0.607	0.592	0.531	0.562	0.585	0.51
NCI-H2085	0.336	0.817	0.798	0.81	0.708	0.906	0.979	1.12	0.84	0.991	0.813	0.984	1.05	1.03	0.911	–	0.721	0.629	0.713	0.675
NCI-H2087	0.522	1	1.05	1.05	0.807	0.659	1.15	1.17	1.03	0.962	1.29	1.23	1.5	1.3	1.19	0.303	0.475	0.504	0.456	0.539
NCI-H2126	0.459	0.746	0.747	0.79	0.71	1.14	1.22	1.15	1.2	1.26	0.957	0.975	1.03	1.07	0.834	0.647	0.608	0.747	0.749	0.679
NCI-H2170	0.187	0.282	0.26	0.27	0.245	0.978	0.961	0.994	1.03	1.02	0.849	0.904	0.786	0.829	0.734	0.771	0.748	0.741	0.683	0.617
NCI-H2347	0.517	0.896	1.03	1.01	0.904	–	0.527	0.991	0.775	0.575	0.77	0.787	0.788	0.769	0.624	0.416	0.377	0.473	0.206	0.347
